The experiment concerns the target T1, N-formyl peptide receptor 2 (Homo sapiens, UniProt P25090).
T1 sequence (P25090 whole entry): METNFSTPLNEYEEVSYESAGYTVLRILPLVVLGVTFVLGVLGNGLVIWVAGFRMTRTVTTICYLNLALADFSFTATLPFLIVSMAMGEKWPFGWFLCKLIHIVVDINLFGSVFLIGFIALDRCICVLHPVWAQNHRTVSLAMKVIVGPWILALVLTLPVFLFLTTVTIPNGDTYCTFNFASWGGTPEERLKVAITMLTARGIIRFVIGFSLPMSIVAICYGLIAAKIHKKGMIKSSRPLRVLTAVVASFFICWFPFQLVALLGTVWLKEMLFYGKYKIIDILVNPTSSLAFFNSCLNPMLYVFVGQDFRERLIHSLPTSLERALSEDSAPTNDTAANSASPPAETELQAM
Nature of the experiment: Agonist activity at human FPR2 expressed in forskolin/IBMX-treated CHO cells incubated for 30 mins by HTRF HiRange cAMP assay. The format is functional, cell-based.

With `CN(C)[C@H]1CN(c2ccc(N3CC[C@@H](NC(=O)Nc4ccc(Cl)cc4F)C3=O)c(F)c2F)C[C@H]1F`, the half-maximal effective concentration (EC50) – broadly, the concentration at which the effect is half-maximal – worked out at 0.71 nM. As for `O=C(Nc1ccc(Cl)cc1F)N[C@@H]1CCN(c2ccc(N3CCC(CO)C3)c(F)c2F)C1=O` (stereo partly specified), the response was half-maximal at 0.74 nM (EC50). Next, `O=C(Nc1ccc(Cl)cc1F)N[C@@H]1C[C@@H](CO)N(c2ccc(N3CCC(C(F)(F)F)C3)c(F)c2F)C1=O` (stereo partly specified): 0.14 nM; `CN(C)[C@@H]1CCN(c2ccc(N3CC[C@@H](NC(=O)Nc4ccc(C(F)(F)F)cc4F)C3=O)c(F)c2F)C1`: 0.1 nM. Turning to `CC(C)(O)C1CCCN1c1cc(F)c(N2CCC(NC(=O)Nc3ccc(Cl)cc3F)C2=O)c(F)c1` (stereo unspecified), the response was half-maximal at 0.51 nM (EC50). Turning to `O=C(Nc1ccc(Cl)cc1F)N[C@@H]1C[C@@H](CO)N(c2ccc(N3CCC(C(F)F)C3)c(F)c2F)C1=O` (stereo partly specified), the half-maximal effective concentration (EC50) turned out to be 0.7 nM.

The values above are taken from ChEMBL document CHEMBL6103557, “Novel Pyrrolidinone Urea Compounds as FPR2 Agonists for Treating Atherosclerosis and Heart Failure” (ACS Med Chem Lett, 2024).
